This passage reports IC50 and inhibition results from patent US11584742B2 (MASARYKOVA UNIVERZITA, priority 2018, dated 2023).

As a reminder, the pIC50 is the negative decadic logarithm of the IC50, by convention in mol/L. A higher pIC50 goes with a low IC50. By inhibition is commonly meant how much of the control response was suppressed. Low values mean little suppression, high ones strong suppression.

pIC50: −log10 of the molar value.

The target of one assay is T1, MRE11 (Homo sapiens, UniProt P49959).
T1 sequence (P49959 1-708): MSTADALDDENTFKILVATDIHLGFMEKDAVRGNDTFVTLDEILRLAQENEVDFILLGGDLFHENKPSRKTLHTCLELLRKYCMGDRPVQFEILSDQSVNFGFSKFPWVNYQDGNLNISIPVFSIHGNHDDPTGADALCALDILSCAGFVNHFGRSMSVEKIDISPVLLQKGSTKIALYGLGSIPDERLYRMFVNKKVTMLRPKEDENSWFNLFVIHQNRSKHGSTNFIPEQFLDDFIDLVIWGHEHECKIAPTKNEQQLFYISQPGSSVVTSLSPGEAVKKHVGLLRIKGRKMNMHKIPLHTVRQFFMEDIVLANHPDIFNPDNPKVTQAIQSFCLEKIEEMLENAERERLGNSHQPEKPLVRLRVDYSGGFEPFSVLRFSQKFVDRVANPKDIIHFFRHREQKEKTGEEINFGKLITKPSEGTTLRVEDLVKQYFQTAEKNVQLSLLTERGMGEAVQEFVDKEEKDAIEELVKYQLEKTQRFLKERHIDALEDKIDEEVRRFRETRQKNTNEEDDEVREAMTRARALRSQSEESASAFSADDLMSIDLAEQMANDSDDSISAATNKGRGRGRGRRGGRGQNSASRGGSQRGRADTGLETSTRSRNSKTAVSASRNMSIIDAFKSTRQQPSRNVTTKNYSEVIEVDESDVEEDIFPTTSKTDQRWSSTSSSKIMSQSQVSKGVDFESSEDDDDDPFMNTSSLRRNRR
Kind of assay: HTS nuclease assay (cleavage of CY5/BBQ-quenched 5' overhang DNA substrate). Format: biochemical. To be noted: in vitro HTS nuclease assay; 18 nM MRE11, 40 nM DNA substrate; analysis at t=4 h. The protocol: DNA Substrate Preparation
The DNA substrate is prepared by mixing the oligonucleotides listed below in a 1:1 ratio to reach a final concentration of 6 μM in a buffer containing 50 mM Tris pH 7.5, 100 mM NaCl and 8 mM MgCl2.
This substrate is a 5′ overhang, which is a preferred substrate of MRE11. […] The fluorescence increases upon substrate cleavage by MRE11, when separation of the two labels occur.
The conditions of the assay are as follows:
Total reaction volume: 5 μL
DNA substrate concentration in the reaction: 40 nM
Inhibitor concentration range tested: 7 nM-50 μM
Each plate contains a series of high and low signal control wells, where no compound is added:
High signal: MRE11+DNA substrate
Low signal: DNA substrate only
These are used during data evaluation.
Two extra assay controls:
1) To check whether unwinding of DNA by the compounds alone occurs.
The DNA substrate [CY5+BBQ(650)] is mixed with the compounds with no protein present.
The CY5 single stranded oligo is mixed with the compounds with no protein present.
The layout of the plates is created by the in-house software (CZ-Openscreen Prague) and this information is transferred to the robotic HTS station.
The reaction is started by the addition of DNA and the reaction time is counted from that moment, including a 15 min delay. Ten timepoints are measured:
The assay data analysis was performed at t=4 h. This corresponds to the time when the reaction is close to its maximum.
The data analysis was performed using the in-house software to obtain IC50 for each compound.

For the next assay, the system named is DR-GFP U2OS cells. Kind of assay: HR assay (GFP fluorescence after I-SceI transfection, flow cytometry). Format: cell-based. To be noted: Homo sapiens, inhibitor at 25 μM, 72 hours after transfection. The protocol: DR-GFP U2OS cells (Methods in Molecular Biology 2012, 920, 379.) were transfected with 2.5 μg of I-SceI-expressing pCAGGS vector and treated with the inhibitors at 25 μM concentration. 72 hours after the transfection, the cells were trypsinized and resuspended in 3% BSA in PBS. GFP fluorescence detection was carried out using a BD FACSVerse flow cytometer and data analyzed with FlowJo software.

`N#C/C(=C\c1ccc(O)c(O)c1)C(=O)Nc1nc(-c2cc3ccccc3o2)cs1` [Preparative Example 173, (E)-N-(4-(benzofuran-2-yl)thiazol-2-yl)-2-cyano-3-(3,4-dihydroxyphenyl)acrylamide] showed a pIC50 against MRE11 above 5.70. Also, the inhibition at 25 µM in the assay on DR-GFP U2OS cells is above 75%.
Take `N#C/C(=C\c1ccc2cn[nH]c2c1)C(=O)Nc1nc(-c2ccccc2)cs1` [Preparative Example 205, (E)-2-cyano-3-(1H-indazol-6-yl)-N-(4-phenylthiazol-2-yl)acrylamide]: on MRE11, the pIC50 was 5.00 to 5.70. The molecule further had an inhibition at 25 µM in the assay on DR-GFP U2OS cells below 50%.
The matching figures for `N#C/C(=C\c1ccc(C(=O)O)cc1)C(=O)Nc1nc(-c2ccccc2)cs1` [Preparative Example 204, (E)-4-(2-cyano-3-oxo-3-((4-phenylthiazol-2-yl)amino)prop-1-en-1-yl)benzoic acid]: 5.00 to 5.70 and below 50%.
Take `Cc1cc(O)ccc1/C=C(\C#N)C(=O)Nc1nc(-c2ccccc2)cs1` [Preparative Example 225, (E)-2-cyano-3-(4-hydroxy-2-methylphenyl)-N-(4-phenylthiazol-2-yl)acrylamide]: on MRE11, the negative logarithm of the IC50 (pIC50) is 4.05 to 5.00. The same molecule displayed an inhibition at 25 µM in the assay on DR-GFP U2OS cells below 50%.
The matching figures for `N#C/C(=C\c1cnc(O)c(O)c1)C(=O)Nc1nc(-c2ccccc2)cs1` [Preparative Example 200, (E)-2-cyano-3-(5,6-dihydroxypyridin-3-yl)-N-(4-phenylthiazol-2-yl)acrylamide]: 5.00 to 5.70 and below 50%.
`Cc1ccc(-c2csc(NC(=O)/C(C#N)=C/c3cc(Cl)c(O)c(Cl)c3)n2)cc1` [Preparative Example 168]: the pIC50 at MRE11 was above 5.70. The same molecule came in with an inhibition at 25 µM with DR-GFP U2OS cells above 75%.
On the same counts, the results for `CC(C)(O)c1ccc(-c2csc(NC(=O)/C(C#N)=C/c3ccc(O)c(O)c3)n2)cc1` [Preparative Example 182, (E)-2-cyano-3-(3,4-dihydroxyphenyl)-N-(4-(4-(2-hydroxypropan-2-yl)phenyl)thiazol-2-yl)acrylamide] are above 5.70 and 50 to 75%.
The molecule `N#C/C(=C\c1ccc(O)c(O)c1)C(=O)Nc1nc(-c2cccc(OC(F)(F)F)c2)cs1` [Preparative Example 171, (E)-2-cyano-3-(3,4-dihydroxyphenyl)-N-(4-(3-(trifluoromethoxy)phenyl)thiazol-2-yl)acrylamide] gave a pIC50 against MRE11 of 5.00 to 5.70. Besides, in the assay on DR-GFP U2OS cells, the inhibition at 25 µM lay in the range of 50 to 75%.
For the molecule `N#C/C(=C\c1ccc([N+](=O)[O-])cc1)C(=O)Nc1nc(-c2ccccc2)cs1` [Preparative Example 209, (E)-2-cyano-3-(4-nitrophenyl)-N-(4-phenylthiazol-2-yl)acrylamide], the negative-log IC50 (pIC50) on MRE11 is 4.05 to 5.00. Moreover, in the assay on DR-GFP U2OS cells, the inhibition at 25 µM is 50 to 75%.
On the same counts, the results for `CC(C)(C)c1cccc(-c2csc(NC(=O)/C(C#N)=C/c3ccc(O)c(O)c3)n2)c1` [Preparative Example 247, (E)-N-(4-(3-(tert-butyl)phenyl)thiazol-2-yl)-2-cyano-3-(3,4-dihydroxyphenyl)acrylamide] are 5.00 to 5.70 and 50 to 75%.
The matching figures for `N#C/C(=C\c1ccc(O)c(O)c1)C(=O)Nc1nc(-c2cccc(F)c2)cs1` [Preparative Example 236, (E)-2-cyano-3-(3,4-dihydroxyphenyl)-N-(4-(3-fluorophenyl)thiazol-2-yl)acrylamide]: above 5.70 and 50 to 75%.
The matching figures for `N#C/C(=C\c1ccc(O)c(O)c1)C(=O)Nc1nc(-c2ccc(C(F)(F)F)cn2)cs1` [Preparative Example 179, (E)-2-cyano-3-(3,4-dihydroxyphenyl)-N-(4-(5-(trifluoromethyl)pyridin-2-yl)thiazol-2-yl)acrylamide]: above 5.70 and above 75%.
Molecule `CC(=O)Nc1ccc(/C=C(\C#N)C(=O)Nc2nc(-c3ccccc3)cs2)cc1O` [Preparative Example 223, (E)-3-(4-acetamido-3-hydroxyphenyl)-2-cyano-N-(4-phenylthiazol-2-yl)acrylamide] showed a negative-log IC50 (pIC50) at MRE11 of 4.05 to 5.00. The molecule further yielded an inhibition at 25 µM in the assay with DR-GFP U2OS cells below 50%.
Consider `N#CC(=Cc1c[nH]cn1)C(=O)Nc1nc(-c2ccccc2)cs1` (racemic) [Preparative Example 214, (E)- and (Z)-2-cyano-3-(1H-imidazol-4-yl)-N-(4-phenylthiazol-2-yl)acrylamide], for which, on MRE11, the pIC50 is 4.05 to 5.00. Moreover, the inhibition at 25 µM in the assay with DR-GFP U2OS cells was below 50%.
On the same counts, the results for `N#C/C(=C\c1ccccc1F)C(=O)Nc1nc(-c2ccccc2)cs1` [Preparative Example 206, (E)-2-cyano-3-(2-fluorophenyl)-N-(4-phenylthiazol-2-yl)acrylamide] are 5.00 to 5.70 and below 50%.
The matching figures for `N#C/C(=C\c1ccc(O)c(O)c1)C(=O)Nc1nc(-c2ccccc2)c(Br)s1` [Preparative Example 196, (E)-N-(5-bromo-4-phenylthiazol-2-yl)-2-cyano-3-(3,4-dihydroxyphenyl)acrylamide]: above 5.70 and 50 to 75%.
`N#C/C(=C\c1ccc(O)c(Cl)c1)C(=O)Nc1nc(-c2ccccc2)cs1` [Preparative Example 201, (E)-3-(3-chloro-4-hydroxyphenyl)-2-cyano-N-(4-phenylthiazol-2-yl)acrylamide] gave a negative-log IC50 (pIC50) on MRE11 of 5.00 to 5.70. In addition, in the assay with DR-GFP U2OS cells, the inhibition at 25 µM was 50 to 75%.
On the same counts, the results for `N#C/C(=C\c1ccc(O)c(O)c1)C(=O)Nc1nc(-c2ccc(Oc3ccccc3)cc2)cs1` [Preparative Example 172, (E)-2-cyano-3-(3,4-dihydroxyphenyl)-N-(4-(4-phenoxyphenyl)thiazol-2-yl)acrylamide] are 5.00 to 5.70 and above 75%.
Molecule `N#C/C(=C\c1ccc(O)c(O)c1)C(=O)Nc1nc(-c2ccccc2Br)cs1` [Preparative Example 170, (E)-N-(4-(2-bromophenyl)thiazol-2-yl)-2-cyano-3-(3,4-dihydroxyphenyl)acrylamide] showed a pIC50 on MRE11 above 5.70. The molecule also registered an inhibition at 25 µM with DR-GFP U2OS cells of 50 to 75%.
Molecule `N#C/C(=C\c1cc(Cl)c(O)c(Cl)c1)C(=O)Nc1nc(-c2ccc(Br)cc2)cs1` [Preparative Example 165, (E)-N-(4-(4-bromophenyl)thiazol-2-yl)-2-cyano-3-(3,5-dichloro-4-hydroxyphenyl)acrylamide] showed a negative-log IC50 (pIC50) against MRE11 above 5.70. This molecule also returned an inhibition at 25 µM in the assay with DR-GFP U2OS cells of 50 to 75%.
`CN(C)C(=O)c1ccc(-c2csc(NC(=O)/C(C#N)=C/c3ccc(O)c(O)c3)n2)cc1` [Preparative Example 181, (E)-4(2-(2-cyano-3-(3,4-dihydroxyphenyl)acrylamido)thiazol-4-yl)-N,N-dimethylbenzamide] gave a negative logarithm of the IC50 (pIC50) against MRE11 above 5.70. This molecule displayed an inhibition at 25 µM in the assay on DR-GFP U2OS cells below 50%.
The matching figures for `N#C/C(=C\c1ccc(O)c(O)c1)C(=O)Nc1nc2c(s1)CCCC2` [Preparative Example 191]: above 5.70 and below 50%.
On the same counts, the results for `N#C/C(=C\c1ccc(O)c(O)c1)C(=O)Nc1nc(-c2ccc(C#N)s2)cs1` [Preparative Example 183, (E)-2-cyano-N-(4-(5-cyanothiophen-2-yl)thiazol-2-yl)-3-(3,4-dihydroxyphenyl)acrylamide] are above 5.70 and below 50%.
The matching figures for `COC(=O)c1ccc(-c2csc(NC(=O)/C(C#N)=C/c3ccc(O)c(O)c3)n2)cc1` [Preparative Example 189, Methyl (E)-4-(2-(2-cyano-3-(3,4-dihydroxyphenyl)acrylamido)thiazol-4-yl)benzoate]: above 5.70 and 50 to 75%.
